Laboratory results: patent US20140323504A1, “Pyrazolo[4,3-c]Pyridine Derivatives As Kinase Inhibitors” (Cellzome Limited, priority 2011, published 2014)
“Also recorded” adds a separate entry of the source.

Molecular target: T1, JAK3 (Homo sapiens, UniProt P52333)
T1 sequence (P52333 1-1124): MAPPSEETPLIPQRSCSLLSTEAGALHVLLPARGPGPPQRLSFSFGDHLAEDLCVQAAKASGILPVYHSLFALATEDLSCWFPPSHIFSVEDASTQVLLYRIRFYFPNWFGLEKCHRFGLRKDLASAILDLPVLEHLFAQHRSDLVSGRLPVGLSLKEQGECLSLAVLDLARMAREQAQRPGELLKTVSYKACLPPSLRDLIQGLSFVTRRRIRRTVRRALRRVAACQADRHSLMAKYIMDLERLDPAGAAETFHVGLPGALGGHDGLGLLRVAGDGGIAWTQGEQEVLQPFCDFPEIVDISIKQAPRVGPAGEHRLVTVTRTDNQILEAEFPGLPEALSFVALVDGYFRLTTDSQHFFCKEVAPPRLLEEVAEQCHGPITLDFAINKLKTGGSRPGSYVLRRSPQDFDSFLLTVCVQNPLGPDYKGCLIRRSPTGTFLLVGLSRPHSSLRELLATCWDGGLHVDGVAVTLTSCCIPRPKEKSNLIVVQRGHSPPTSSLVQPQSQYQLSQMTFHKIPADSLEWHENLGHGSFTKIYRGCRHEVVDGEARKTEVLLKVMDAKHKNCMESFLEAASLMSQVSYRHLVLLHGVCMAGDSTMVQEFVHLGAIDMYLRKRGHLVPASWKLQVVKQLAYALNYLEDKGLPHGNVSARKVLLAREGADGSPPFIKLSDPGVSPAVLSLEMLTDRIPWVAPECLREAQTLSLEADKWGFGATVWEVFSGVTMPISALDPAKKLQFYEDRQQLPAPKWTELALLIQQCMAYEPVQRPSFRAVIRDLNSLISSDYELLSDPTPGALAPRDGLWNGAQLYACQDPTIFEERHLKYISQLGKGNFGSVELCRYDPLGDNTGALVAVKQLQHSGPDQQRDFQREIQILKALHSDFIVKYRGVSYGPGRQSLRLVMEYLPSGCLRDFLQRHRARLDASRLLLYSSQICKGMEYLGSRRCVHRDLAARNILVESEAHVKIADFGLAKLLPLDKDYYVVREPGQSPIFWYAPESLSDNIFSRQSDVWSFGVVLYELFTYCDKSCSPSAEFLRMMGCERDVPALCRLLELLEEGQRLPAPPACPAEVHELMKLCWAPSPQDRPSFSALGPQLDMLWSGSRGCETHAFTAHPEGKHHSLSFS
Test: Mass spectrometry identification of a JAK3 peptide modified by compound
Assay type: binding
Parameters: endogenous in cells; host or cells: Jurkat cells (ATCC TIB-152, clone E6-1) lysate; immunoprecipitated with anti-JAK3 antibody
Settings: Jurkat cell lysate, 10 μM compound, 45 minutes, JAK3 immunoprecipitation, LC-MS/MS
Experimental: Mass spectrometry analysis of immunoprecipitated JAK3 after compound treatment was used to determine whether compound example 1 covalently binds to JAK3. Jurkat cell lysate was pre-incubated with 10 μM of compound example 1 for 45 minutes. Control samples were incubated without compound (DMSO controls). Subsequently JAK3 was immunoprecipitated with an anti-JAK3 antibody (Abeam ab45141). In addition, a control experiment was performed with anti-IgG (mock immunoprecipitation). The precipitated proteins were separated by SDS-polyacrylamide gel electrophoresis. The gel was stained with colloidal Coomassie and stained areas of each gel lane were cut out and subjected to in-gel proteolytic digestion with trypsin. The peptides originating from the three samples were labeled with iTRAQ reagents as shown in Table 13 and the combined samples were analyzed with a nano-flow liquid chromatography system coupled online to a tandem mass spectrometer (LC-MS/MS) experiment followed by iTRAQ reporter ion quantification in the MSMS spectra (Ross et al., 2004. Mol. Cell. Proteomics 3(12):1154-1169). The gel area containing JAK3 was analysed for 270 minutes with HCDiq (high mass accuracy MSMS spectra) on a Orbitrap Velos mass spectrometer. For the Mascot search standard parameters plus a variable modification of cysteine by compound example 1 was used. […]

`C=CC(=O)Nc1cccc(Cn2ncc3cnc(Nc4cnn(C)c4)nc32)c1` [Example 1, N-(3-((6-((1-Methyl-1H-pyrazol-4-yl)amino)-1H-pyrazolo[3,4-d]pyrimidin-1-yl)methyl)phenyl)acrylamide] was tested, and the “covalent binding to JAK3 (modified residue/peptide)” value was “modified at cysteine 909; also recorded: covalently bound to cystein residue 909 (Cys909) of JAK3”.
